# From the supplement of paper PMC10307832
# Experiments:
# Assay in all cases: relative viability (nuclei count vs DMSO), 5 days (fraction); higher = more cells survive
# VX-11e + Pictilisib = compound: CC1=CN=C(N=C1C2=CNC(=C2)C(=O)N[C@H](CO)C3=CC(=CC=C3)Cl)NC4=C(C=C(C=C4)F)Cl [VX-11e] + CS(=O)(=O)N1CCN(Cc2cc3nc(-c4cccc5[nH]ncc45)nc(N4CCOCC4)c3s2)CC1 [Pictilisib] (partner 1 µM)
# Procedure, shortened: (§1)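 Lung cancer cell lines were pin-tool dosed in 1536-well plates on the day after seeding, with either a lone drug or a fixed anchor-drug dose plus five library-drug doses (not always all listed) in √10 steps. Nuclei were counted on 4× images after 5 days. Relative viability is the ratio of treated-well to vehicle-well nuclei counts, with each value a median of duplicate plates.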
# VX-11e + Alpelisib = compound: CC1=CN=C(N=C1C2=CNC(=C2)C(=O)N[C@H](CO)C3=CC(=CC=C3)Cl)NC4=C(C=C(C=C4)F)Cl [VX-11e] + Cc1nc(NC(=O)N2CCC[C@H]2C(N)=O)sc1-c1ccnc(C(C)(C)C(F)(F)F)c1 [Alpelisib] (partner 2 µM)
# Procedure, shortened: as §1
# VX-11e + Phenformin = compound: CC1=CN=C(N=C1C2=CNC(=C2)C(=O)N[C@H](CO)C3=CC(=CC=C3)Cl)NC4=C(C=C(C=C4)F)Cl [VX-11e] + N=C(N)NC(=N)NCCc1ccccc1 [Phenformin] (partner 250 µM)
# Procedure, shortened: as §1
# VX-11e + AZD7762 = compound: CC1=CN=C(N=C1C2=CNC(=C2)C(=O)N[C@H](CO)C3=CC(=CC=C3)Cl)NC4=C(C=C(C=C4)F)Cl [VX-11e] + NC(=O)Nc1cc(-c2cccc(F)c2)sc1C(=O)N[C@H]1CCCNC1 [AZD7762] (partner 0.2 µM)
# Procedure, shortened: as §1
Cell Line,relative viability (VX-11e + Pictilisib; first compound 0.04 µM),relative viability (VX-11e + Pictilisib; first compound 0.1265 µM),relative viability (VX-11e + Pictilisib; first compound 0.4 µM),relative viability (VX-11e + Pictilisib; first compound 1.265 µM),relative viability (VX-11e + Pictilisib; first compound 4 µM),relative viability (VX-11e + Alpelisib; first compound 0.04 µM),relative viability (VX-11e + Alpelisib; first compound 0.1265 µM),relative viability (VX-11e + Alpelisib; first compound 0.4 µM),relative viability (VX-11e + Alpelisib; first compound 1.265 µM),relative viability (VX-11e + Alpelisib; first compound 4 µM),relative viability (VX-11e + Phenformin; first compound 0.04 µM),relative viability (VX-11e + Phenformin; first compound 0.1265 µM),relative viability (VX-11e + Phenformin; first compound 1.265 µM),relative viability (VX-11e + Phenformin; first compound 4 µM),relative viability (VX-11e + AZD7762; first compound 0.04 µM),relative viability (VX-11e + AZD7762; first compound 0.1265 µM),relative viability (VX-11e + AZD7762; first compound 1.265 µM),relative viability (VX-11e + AZD7762; first compound 4 µM),relative viability (VX-11e + Phenformin; first compound 0.4 µM),relative viability (VX-11e + AZD7762; first compound 0.4 µM)
HCC-15,0.619,0.682,0.32,0.334,0.168,0.902,0.878,0.753,0.408,0.165,0.57,0.464,0.211,0.162,1.41,1.18,1.11,0.769,–,–
HCC-44,0.539,0.552,0.628,0.359,0.163,0.796,0.766,0.716,0.614,0.355,0.211,0.172,0.119,0.139,1.03,0.904,1.07,1.13,0.115,1.01
HCC-78,0.23,0.185,0.31,0.189,0.224,0.313,0.348,0.381,0.276,0.312,–,0.75,0.672,0.738,0.58,0.814,0.371,0.527,0.857,0.725
HCC-366,0.159,0.101,0.15,0.12,0.081,0.446,0.431,–,0.239,0.0901,0.61,0.549,0.57,0.463,0.429,0.235,0.21,0.16,–,–
NCI-H520,0.267,0.276,0.34,0.274,0.336,0.919,0.939,0.863,0.982,0.619,0.505,0.483,0.752,0.479,–,–,–,–,0.449,–
NCI-H661,0.324,0.462,0.4,0.403,0.363,0.403,0.831,0.606,0.586,0.511,0.242,0.324,0.293,0.27,–,–,–,–,0.275,–
NCI-H1299,0.851,0.821,0.681,0.262,0.119,1.11,1.03,1.05,1.11,0.708,–,–,–,–,–,–,–,–,–,–
NCI-H1563,0.662,0.538,0.559,0.656,0.625,0.86,0.84,0.897,0.917,0.874,0.647,0.607,0.713,0.806,–,–,–,–,0.549,–
NCI-H1648,–,–,–,–,–,–,–,–,–,–,–,–,–,–,–,0.639,0.703,0.733,–,0.641
NCI-H1650,0.531,0.451,0.171,0.276,0.303,–,–,–,–,–,0.478,0.343,0.315,0.295,–,–,–,–,–,–
NCI-H1703,–,0.257,0.234,0.268,0.258,0.303,0.401,0.303,0.444,0.294,–,–,–,–,–,–,0.121,0.122,–,0.141
NCI-H2009,0.712,0.671,0.478,0.23,0.186,1.2,1.1,1.07,0.571,0.285,0.575,0.535,0.251,0.178,–,–,–,–,0.481,–
NCI-H2023,0.2,0.215,0.0991,0.151,0.119,0.59,0.611,0.572,0.458,0.257,0.393,0.404,0.322,0.191,–,–,–,–,0.291,–
NCI-H2228,0.355,0.464,0.0994,0.854,0.188,0.631,0.922,0.715,0.548,0.232,0.352,0.376,0.151,0.135,–,–,–,–,–,–
NCI-H2342,–,–,–,–,–,–,–,–,–,–,0.438,0.614,0.782,0.583,–,0.462,0.508,0.466,0.534,0.604
SK-LU-1,0.442,0.551,0.249,0.37,0.195,1.26,1.1,1.05,0.592,0.263,0.474,0.492,0.356,0.156,–,–,–,–,–,–
SK-MES-1,0.337,0.31,0.316,0.249,0.168,1.31,0.815,0.718,0.644,0.208,0.693,0.64,0.618,0.368,–,–,–,–,0.694,–
SW 900,–,–,–,–,–,–,–,–,–,–,0.504,0.456,0.213,0.318,0.439,0.529,0.265,0.411,0.216,–
SW 1573,0.509,0.522,0.404,0.307,0.298,0.791,0.825,0.767,0.59,0.39,0.39,0.346,0.287,0.154,–,–,–,–,0.289,–
UMC-11,0.355,0.943,0.755,0.401,0.609,0.921,1,0.962,0.97,0.973,0.291,0.309,0.301,0.283,–,–,–,–,0.28,–
